Data published in PubChem BioAssay AID248 (DTP/NCI, 2004).
Where “and” joins values, the source holds several entries; their conditions need not be identical. Equal entries are not always repeated. Toxic doses and inconclusive results are not listed. Rule as the data show it: active = T/C of 150% or more; inactive = T/C below 125%.

System: L1210 leukemia ip in BDF1 mice, survival T/C
Assay: NCI In Vivo Anticancer Drug Screen. Data for tumor model L1210 Leukemia (intraperitoneal) in B6D2F1 (BDF1) mice
Conditions: endpoint: mean survival time, higher = longer survival
Method in brief: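 Tumor was transplanted into mice, which were then dosed with test compound or vehicle alone. Survival was recorded for each group, and the treated figure was expressed relative to the control figure.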

[1] = dose: 100.0 mg/kg/injection, schedule: Q01DX001 (ip), vehicle: saline
[2] = dose: 200.0 mg/kg/injection, schedule: Q01DX001 (ip), vehicle: saline
[3] = dose: 400.0 mg/kg/injection, schedule: Q01DX001 (ip), vehicle: saline
[4] = dose: 50.0 mg/kg/injection, schedule: Q01DX001 (ip), vehicle: saline
[5] = dose: 100.0 mg/kg/injection, schedule: Q01DX009 (ip), vehicle: saline with Tween-80
[6] = dose: 200.0 mg/kg/injection, schedule: Q01DX009 (ip), vehicle: saline with Tween-80
[7] = dose: 400.0 mg/kg/injection, schedule: Q01DX009 (ip), vehicle: saline with Tween-80
[8] = dose: 25.0 mg/kg/injection, schedule: Q01DX009 (ip), vehicle: saline
[9] = dose: 50.0 mg/kg/injection, schedule: Q01DX009 (ip), vehicle: saline
[10] = dose: 100.0 mg/kg/injection, schedule: Q04DX003 (ip), vehicle: saline
[11] = dose: 200.0 mg/kg/injection, schedule: Q04DX003 (ip), vehicle: saline
[12] = dose: 100.0 mg/kg/injection, schedule: Q04DX002 (ip), vehicle: saline with Tween-80
[13] = dose: 200.0 mg/kg/injection, schedule: Q04DX002 (ip), vehicle: saline with Tween-80
[14] = dose: 400.0 mg/kg/injection, schedule: Q04DX002 (ip), vehicle: saline with Tween-80
[15] = dose: 100.0 mg/kg/injection, schedule: Q01DX009 (ip), vehicle: Klucel (hydroxypropylcellulose) (HPC)
[16] = dose: 200.0 mg/kg/injection, schedule: Q01DX009 (ip), vehicle: Klucel (hydroxypropylcellulose) (HPC)

Measured: T/C

O=c1[nH]nc(SC2CCCCC2)c(=O)[nH]1
inactive: [1] 108 % of control | [2] 108 % of control | [3] 106 % of control

COc1ccc2c(c1)C(CC(=O)O)=CC2
inactive: [4] 100 % of control | [1] 96 % of control | [2] 105 % of control | [3] 107 % of control

NCC(OCC(=O)O)C(Cl)(Cl)Cl (configuration not stated)
inactive: [5] 93 % of control | [6] 95 % of control | [7] 90 % of control

Cn1cnc([N+](=O)[O-])c1[Se]c1ncnc2nc[nH]c12
inactive: dose: 12.5 mg/kg/injection, schedule: Q01DX005 (ip), vehicle: other 89 % of control | dose: 50.0 mg/kg/injection, schedule: Q01DX005 (ip), vehicle: other 87 % of control

CC(=O)NC(C(O)CC(=O)C(=O)O)C(O)C(O)C(O)CO (configuration not stated) (tested in a mixture with another compound)
inactive: [1] 102 % of control | [2] 100 % of control | [3] 102 % of control

NC(=O)c1cn[nH]c1NC(=O)/C=C/c1cccc([N+](=O)[O-])c1
inactive: dose: 50.0 mg/kg/injection, schedule: Q01DX001 (ip), vehicle: Klucel (hydroxypropylcellulose) (HPC) 92 % of control | dose: 100.0 mg/kg/injection, schedule: Q01DX001 (ip), vehicle: Klucel (hydroxypropylcellulose) (HPC) 96 % of control | dose: 200.0 mg/kg/injection, schedule: Q01DX001 (ip), vehicle: Klucel (hydroxypropylcellulose) (HPC) 91 % of control

O=C(/C=C/c1ccccc1)c1ccc(N=Cc2ccccc2)cc1
inactive: [4] 94 % of control | [1] 94 % of control | [2] 90 % of control | [3] 105 % of control

CC1CCCCC1C(=O)N1CCCCCC1 (configuration not stated)
inactive: dose: 100.0 mg/kg/injection, schedule: Q04DX002 (ip), vehicle: saline 108 % of control | dose: 200.0 mg/kg/injection, schedule: Q04DX002 (ip), vehicle: saline 99 % of control | dose: 400.0 mg/kg/injection, schedule: Q04DX002 (ip), vehicle: saline 108 % of control

CCCNCCCN
inactive: [8] 100 % of control | dose: 25.0 mg/kg/injection, schedule: Q04DX003 (ip), vehicle: saline 93 % of control | [9] 105 % of control | dose: 50.0 mg/kg/injection, schedule: Q04DX003 (ip), vehicle: saline 101 % of control | [10] 94 % of control and 102 % of control | [11] 88 % of control

CCCCOC(=O)c1[nH]cnc1/N=N\N(C)C
inactive: dose: 10.0 mg/kg/injection, schedule: Q01DX009 (ip), vehicle: carboxymethylcellulose (CMC) 100 % of control | dose: 18.0 mg/kg/injection, schedule: Q01DX001 (ip), vehicle: other 98 % of control | dose: 20.0 mg/kg/injection, schedule: Q01DX009 (ip), vehicle: carboxymethylcellulose (CMC) 109 % of control | dose: 28.0 mg/kg/injection, schedule: Q01DX001 (ip), vehicle: other 93 % of control | dose: 40.0 mg/kg/injection, schedule: Q01DX009 (ip), vehicle: carboxymethylcellulose (CMC) 114 % of control | dose: 42.0 mg/kg/injection, schedule: Q01DX001 (ip), vehicle: other 100 % of control | dose: 63.0 mg/kg/injection, schedule: Q01DX001 (ip), vehicle: other 102 % of control | dose: 72.0 mg/kg/injection, schedule: Q01DX015 (ip), vehicle: other 110 % of control | dose: 100.0 mg/kg/injection, schedule: Q01DX001 (ip), vehicle: other 111 % of control | dose: 120.0 mg/kg/injection, schedule: Q01DX015 (ip), vehicle: other 101 % of control

COCCCNP(=S)(N1CC1)N1CC1
inactive: dose: 2.0 mg/kg/injection, schedule: Q01DX Z (ip), vehicle: saline 92 % of control | dose: 4.0 mg/kg/injection, schedule: Q01DX Z (ip), vehicle: saline 116 % of control

CN(C)c1ccccc1C(=O)N/N=C\c1ccc(O)c(O)c1
inactive: [5] 87 % of control | [12] 94 % of control | [6] 87 % of control | [13] 94 % of control | [7] 90 % of control | [14] 90 % of control

CN(C)/C=N\c1ncnc2c1ncn2C1OC(CO)C(O)C1O (configuration not stated)
inactive: [12] 102 % of control | [13] 98 % of control | [14] 102 % of control

O=C(Nc1ccccc1)Nc1ccc(C(=O)c2ccccc2)cc1
inactive: dose: 20.0 mg/kg/injection, schedule: Q01DX005 (ip), vehicle: saline with Tween-80 100 % of control | dose: 40.0 mg/kg/injection, schedule: Q01DX005 (ip), vehicle: saline with Tween-80 89 % of control | dose: 80.0 mg/kg/injection, schedule: Q01DX005 (ip), vehicle: saline with Tween-80 97 % of control | dose: 160.0 mg/kg/injection, schedule: Q01DX005 (ip), vehicle: saline with Tween-80 90 % of control | dose: 320.0 mg/kg/injection, schedule: Q01DX005 (ip), vehicle: saline with Tween-80 95 % of control

CN=C(N)c1ccc(N=C(N)c2cccc(C(N)=Nc3ccc(C(N)=NC)cc3)c2)cc1
inactive: dose: 15.0 mg/kg/injection, schedule: Q01DX Z (ip), vehicle: saline 97 % of control | dose: 30.0 mg/kg/injection, schedule: Q01DX Z (ip), vehicle: saline 120 % of control

CC(O)C#CC#CC(C)O (configuration not stated)
inactive: dose: 12.5 mg/kg/injection, schedule: Q01DX009 (ip), vehicle: saline 103 % of control | dose: 12.5 mg/kg/injection, schedule: Q04DX002 (ip), vehicle: saline 113 % of control | [8] 109 % of control | dose: 25.0 mg/kg/injection, schedule: Q04DX002 (ip), vehicle: saline 109 % of control | [9] 101 % of control | dose: 50.0 mg/kg/injection, schedule: Q04DX002 (ip), vehicle: saline 94 % of control

O=S(=O)(O)CCC(CO)(CO)CO
inactive: dose: 100.0 mg/kg/injection, schedule: Q01DX009 (ip), vehicle: saline 98 % of control | [10] 101 % of control | dose: 200.0 mg/kg/injection, schedule: Q01DX009 (ip), vehicle: saline 102 % of control | [11] 101 % of control | dose: 400.0 mg/kg/injection, schedule: Q01DX009 (ip), vehicle: saline 101 % of control | dose: 400.0 mg/kg/injection, schedule: Q04DX003 (ip), vehicle: saline 97 % of control

CSc1ccc(NCN2C(=O)c3ccccc3C2=O)cc1
inactive: [15] 102 % of control | [16] 100 % of control

Cc1ccc(Sc2cccc3c2C(=O)c2c(Sc4ccc(C)cc4)cccc2C3(Br)c2ccccc2)cc1
inactive: [5] 87 % of control | dose: 100.0 mg/kg/injection, schedule: Q04DX003 (ip), vehicle: saline with Tween-80 95 % of control | dose: 200.0 mg/kg/injection, schedule: Q04DX003 (ip), vehicle: saline with Tween-80 97 % of control | [7] 97 % of control | dose: 400.0 mg/kg/injection, schedule: Q04DX003 (ip), vehicle: saline with Tween-80 88 % of control

O=C(Nc1ccccc1F)Oc1ccc(OCc2ccccc2)cc1
inactive: [15] 101 % of control | [16] 101 % of control | dose: 400.0 mg/kg/injection, schedule: Q01DX009 (ip), vehicle: Klucel (hydroxypropylcellulose) (HPC) 101 % of control

CCC1(c2ccccc2)C(=O)NC(=O)N(CN2CCOCC2)C1=O (configuration not stated)
inactive: dose: 50.0 mg/kg/injection, schedule: Q01DX009 (ip), vehicle: saline with Tween-80 114 % of control | [5] 93 % of control | [6] 97 % of control

CCOCCOCCOCCCNCC(=O)N1CCN(C(=O)CNCCCOCCOCCOCC)CC1
inactive: dose: 50.0 mg/kg/injection, schedule: Q01DX001 (ip), vehicle: carboxymethylcellulose (CMC) 92 % of control | dose: 100.0 mg/kg/injection, schedule: Q01DX001 (ip), vehicle: carboxymethylcellulose (CMC) 101 % of control | dose: 200.0 mg/kg/injection, schedule: Q01DX001 (ip), vehicle: carboxymethylcellulose (CMC) 103 % of control | dose: 400.0 mg/kg/injection, schedule: Q01DX001 (ip), vehicle: carboxymethylcellulose (CMC) 92 % of control

O=C1Nc2ccccc2/C1=C/c1cccnc1
inactive: dose: 50.0 mg/kg/injection, schedule: Q01DX Z (ip), vehicle: carboxymethylcellulose (CMC) 97 % of control | dose: 100.0 mg/kg/injection, schedule: Q01DX Z (ip), vehicle: carboxymethylcellulose (CMC) 111 % of control | dose: 200.0 mg/kg/injection, schedule: Q01DX Z (ip), vehicle: carboxymethylcellulose (CMC) 94 % of control | dose: 400.0 mg/kg/injection, schedule: Q01DX Z (ip), vehicle: carboxymethylcellulose (CMC) 95 % of control
